Experimental findings from patent US20110281917A1, “Substituted Benzimidazoles for the Treatment of Astrocytomas” (priority 2009, published 2011) are described below.

One assay has as its system phospho-MEK. Description: phospho-MEK ELISA in ST88 cells. It is filed as cell-based. From the text:
(§1) Pathway inhibition and anti-proliferative activity of RAF265 in ST88 cells.

The next assay has as its system phospho-ERK. Description: phospho-ERK ELISA in ST88 cells. Format: cell-based.
Excerpt: as §1
On the technique in general: In an ELISA, binding on a coated surface is turned into a signal by an enzyme label.

A further assay relates to ST88 cells. Description: Proliferation of ST88 cells. It is filed as cell-based.
Excerpt: as §1

Assay [1] concerns VEGF-CHO cells induced angiogenesis. Description: Matrigel plug angiogenesis model with VEGF-CHO cells, hemoglobin by Drabkin's reagent. It is filed as in vivo. To be noted: mice, dosed days 1 and 4, plugs excised day 5. From the text:
Due to the inhibition of VEGFR-2, RAF265 also has anti-angiogenic activity which may also provide a therapeutic benefit in treating neurofibromas. To confirm that RAF265 inhibits the growth of new blood vessels (i.e., angiogenesis) in vivo, mice were implanted with Matrigel® containing Chinese hamster ovary cells (CHO) overexpressing VEGF and then treated mice with a dose range of RAF265 or a vehicle control (days 1 and 4). In this model, VEGF expressed from the CHO cells induces angiogenesis within the Matrigel® plug. Plugs are excised on day 5 and assayed for hemoglobin using Drabkin's reagent, as a measure of the degree of angiogenesis.

As usually defined, the EC50 is the midpoint of the concentration-response curve. For `Cn1c(Nc2ccc(C(F)(F)F)cc2)nc2cc(Oc3ccnc(-c4ncc(C(F)(F)F)[nH]4)c3)ccc21` [Compound of Example 1], the results for the EC50 in the assay on phospho-MEK, in the assay with phospho-ERK and in the assay with ST88 cells were 150 nM, 185 nM and 207 nM, respectively. Also, the “dose of maximal suppression of hemoglobin content” value in assay [1] is on record as 50 mg/kg. The “hemoglobin content of Matrigel plug” value in assay [1] is on record as “dose-dependent decrease in hemoglobin content”.
